# Test results published in patent publication EP0181109B1, “N6-benzopyrano- and benzothiopyrano-adenosines” (WARNER-LAMBERT COMPANY, priority 1984, dated 1986).
# Tests used:
# adenosine A1 receptor = target: T1, adenosine A1 receptor (Rattus norvegicus, UniProt P25099); experiment: Adenosine Receptor Binding - A1 Receptor Affinity (RBA 1), [3H]-CHA displacement; settings: rat whole brain membranes, 1.0 nM [3H]-CHA, one hour at 25°C
# T1 construct: Whole brain minus cerebellum and brainstem from male Long Evans rats (150-200 g) was homogenized; from tissue; host or cells: rat whole brain minus cerebellum and brainstem (membrane homogenate)
# T1 sequence (P25099 1-326): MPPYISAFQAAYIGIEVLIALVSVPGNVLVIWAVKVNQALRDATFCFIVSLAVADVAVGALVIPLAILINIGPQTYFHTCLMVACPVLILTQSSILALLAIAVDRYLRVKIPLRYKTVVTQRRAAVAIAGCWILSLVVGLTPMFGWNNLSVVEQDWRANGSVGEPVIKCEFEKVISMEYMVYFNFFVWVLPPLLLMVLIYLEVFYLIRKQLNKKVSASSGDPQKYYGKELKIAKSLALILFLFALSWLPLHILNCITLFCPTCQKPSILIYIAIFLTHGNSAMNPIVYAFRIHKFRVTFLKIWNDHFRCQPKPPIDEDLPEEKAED
# Description: Whole brain minus cerebellum and brainstem from male Long Evans rats (150-200 g) was homogenized in 30 volumes of ice-cold 0.05 M Tris-HCI buffer pH 7.7 using a Brinkman Polytron PT-10, (setting number 6 for 20 seconds) and centrifuged for ten minutes at 20,000 x g (Sorvall RC-2), 4°C. The supernatant was discarded, and the pellet was resuspended and centrifuged as before. The pellet was resuspended in 20 ml Tris-HCI buffer containing two International Units/ml of adenosine deaminase (Sigma Type III from calf intestinal mucosa), incubated at 37°C for 30 minutes, then subsequently at 0°C for ten minutes. The homogenate was again centrifuged, and the final pellet was resuspended in ice-cold 0.05 M Tris-HCI buffer pH 7.7 to a concentration of 20 mg/ml original wet tissue weight and used immediately.
# Tissue homogenate (10 mg/ml) was incubated in 0.05 M Tris-HCI buffer pH 7.7 containing 1.0 nM [^3H]-N^6-cyclohexyladenosine (^3H]-CHA) with or without test agents in triplicate for one hour at 25°C. Incubation volume was 2 ml. Unbound [^3H]-CHA was separated by rapid filtration under reduced pressure through Whatman glass fiber (GF/B) filters. The filters were rinsed three times with 5 ml of ice cold 0.05 M Tris-HCI buffer pH 7.7. The radio-labele ligand retained on the filter was measured by liquid scintillation spectrophotometry after shaking the filters for one hour or longer on a mechanical shaker in 10 ml of Beckman Ready-Solv HP scintillation cocktail.
# Nonspecific binding was defined as the binding which occurred in the presence of 1 mM theophylline. The concentration of test agent which inhibited 50% of the specific binding (IC50) was determined by nonlinear computer curve fit. The Scatchard plot was calculated by linear regression of the line obtained by plotting the amount of radioligand bound (pmoles/gram of tissue) versus
# • bound radioligand • free radioligand Since the amount of radioligand bound was a small fraction of the total amount added, free radioligand was defined as the concentration (nM) of radioligand added to the incubation mixture. The Hill coefficient was calculated by linear regression of the line obtained by plotting the log of the bound radioligand vs the log of the • bound radioligand • Bmax - bound radioligand • The maximal number of binding sites (Bmax) was calculated from the Scatchard plot.
# spontaneous locomotion = experiment: Mouse Activity and Screen Test Procedure (MAST): locomotor activity in actophotometer; assay type: in vivo, Swiss-Webster male mice; settings: one hour prior to testing
# Description: (§1) Nine unfasted Swiss-Webster male mice weighing 20-30 g are equally divided into three groups for each drug dose to be tested. There is, data for each dose level was generated by three separate groups of three mice each.
# (§2) A minimum of three dose levels (10, 30, and 100 mg/kg) are tested for each drug. Treatments are administered intraperitoneally one hour prior to testing. All dosages are calculated as parent compound and given in volumes of 10 ml/kg. Compounds are dissolved or suspended in 0.2% Methocel. Control animals are injected with Methocel.
# The actophotometer consists of a cylindrical chamber whose center is occupied by another cylinder which contains the illumination for six photocells located on the perimeter of the chamber. Six light-beam interruptions equal one count. Locomotor activity is recorded by computer at ten minute intervals for 60 minutes.
# Data: The data obtained from the screen test are expressed as percent of mice falling off the screen. Data derived from locomotor activity of drug treated mice are compared to the activity of vehicle treated animals and are expressed as percent inhibition of spontaneous locomotion. All percentages reported for inhibition of locomotion (LI) are based upon data accumulated for one hour. […] An overall dose rating is obtained by the following criteria:
# LAD refers to the lowest dose at which an A rating is achieved. […] The compounds are identified in the Examples.
# [1] = system: mice falling off the inverted screen; experiment: Mouse Activity and Screen Test Procedure (MAST): screen test (ST); assay type: in vivo, Swiss-Webster male mice; settings: one hour postinjection, percent of mice falling off the screen
# From the text: The compounds of the invention are new chemical substances which are useful as pharmaceutical agents for the treatment of psychoses. The antipsychotic activity of representative compounds of the invention was established by the Mouse Activity and Screen Test Procedure (MAST) described below.
# as §1, §2
# Testing: A two part testing procedure is started one hour postinjection. First, the screen test (ST) is performed (see Pharmac. Biochem. Behav. 6,351-353,1977). Briefly this test consists of placing mice on individual wire screens which are then rotated 180 degrees at the start of a 60 second observation period. The number of mice falling off the inverted screen is recorded.
# Data: The data obtained from the screen test are expressed as percent of mice falling off the screen. Data derived from locomotor activity of drug treated mice are compared to the activity of vehicle treated animals and are expressed as percent inhibition of spontaneous locomotion. All percentages reported for inhibition of locomotion (LI) are based upon data accumulated for one hour. Both phases of testing are graded: A=60-100%; C=31-59%; and N=0-30%. An overall dose rating is obtained by the following criteria:
# LAD refers to the lowest dose at which an A rating is achieved. […] Utilizing this procedure, an overall dose rating of A was obtained for the noted compound at the indicated dose. The compounds are identified in the Examples.
SMILES,IC50 (adenosine A1 receptor) [nM],Inhibition of Mouse Locomotion Activity (spontaneous locomotion; 1 mg/kg intraperitoneally) [%],Inhibition of Mouse Locomotion Activity (spontaneous locomotion; 3 mg/kg intraperitoneally) [%],Inhibition of Mouse Locomotion Activity (spontaneous locomotion; 10 mg/kg intraperitoneally) [%],Inhibition of Mouse Locomotion Activity (spontaneous locomotion; 30 mg/kg intraperitoneally) [%],Inhibition of Mouse Locomotion Activity (spontaneous locomotion; 100 mg/kg intraperitoneally) [%],Screen Test Failure ([1]; 1 mg/kg intraperitoneally) [%],Screen Test Failure ([1]; 3 mg/kg intraperitoneally) [%],Screen Test Failure ([1]; 10 mg/kg intraperitoneally) [%],Screen Test Failure ([1]; 30 mg/kg intraperitoneally) [%],Screen Test Failure ([1]; 100 mg/kg intraperitoneally) [%],Inhibition of Mouse Locomotion Activity (spontaneous locomotion; 0.3 mg/kg intraperitoneally) [%],Inhibition of Mouse Locomotion Activity (spontaneous locomotion; 9.0 mg/kg intraperitoneally) [%],Screen Test Failure ([1]; 0.3 mg/kg intraperitoneally) [%],Screen Test Failure ([1]; 9.0 mg/kg intraperitoneally) [%]
"C[C@H]1Oc2ccccc2C[C@@H]1Nc1ncnc2c1ncn2[C@@H]1O[C@H](CO)[C@@H](O)[C@H]1O (relative stereo) [Example 8, N^l-[trans-2-Methyl,-3-chromanylamino]adenosine]",45,52,84,95,98,99,0,11,0,11,33,,,,
OC[C@H]1O[C@@H](n2cnc3c(NC4CCOc5ccccc54)ncnc32)[C@H](O)[C@@H]1O (stereo partly shown) [Example 1],88,,91,94,97,,,33,33,22,,,,,
OC[C@H]1O[C@@H](n2cnc3c(NC4CSc5ccccc5C4)ncnc32)[C@H](O)[C@@H]1O (stereo partly shown) [Example 2],6.33,34,60,96,98,99,11,0,11,56,100,,,,
COc1ccc2c(c1)OCC(Nc1ncnc3c1ncn3[C@@H]1O[C@H](CO)[C@@H](O)[C@H]1O)C2 (stereo partly shown) [Example 3],14.2,25,58,89,97,,0,0,22,22,,,,,
"OC[C@H]1O[C@@H](n2cnc3c(NC4COc5ccccc5C4)ncnc32)[C@H](O)[C@@H]1O (stereo partly shown) [Example 4, N^6-[3-Chromanylamino]adenosine]",20,36,87,94,99,98,22,11,11,100,88,,,,
OC[C@H]1O[C@@H](n2cnc3c(NC4COc5c(Cl)cccc5C4)ncnc32)[C@H](O)[C@@H]1O (stereo partly shown) [Example 5],17,-14,30,89,97,99,0,0,22,55,44,,,,
COc1ccc2c(c1)CC(Nc1ncnc3c1ncn3[C@@H]1O[C@H](CO)[C@@H](O)[C@H]1O)CO2 (stereo partly shown) [Example 6],4.9,45,77,98,98,100,0,0,77,99,99,,,,
"CC1Oc2ccccc2CC1Nc1ncnc2c1ncn2C1OC(CO)C(O)C1O (stereo not drawn) [Example 7, N^6-[cis-2-Methyl-3-chromanylamino]adenosine]",7.8,57,95,,93,,0,22,,100,,6,96,0,55
"Cc1cc2c(cc1C)OCC(Nc1ncnc3c1ncn3[C@@H]1O[C@H](CO)[C@@H](O)[C@H]1O)C2 (stereo partly shown) [Example 9, N^6-[6,7-Dimethyl-3-chromanylamino]adenosine]",8.1,11,34,77,96,97,0,0,22,44,77,,,,
"Cc1ccc2c(c1C)OCC(Nc1ncnc3c1ncn3[C@@H]1O[C@H](CO)[C@@H](O)[C@H]1O)C2 (stereo partly shown) [Example 10, N^6-[7,8-Dimethyl-3-chromanylamino]adenosine]",27,-8,33,85,91,96,0,0,11,22,55,,,,
Cc1ccc2c(c1C)OC(C)C(Nc1ncnc3c1ncn3[C@@H]1O[C@H](CO)[C@@H](O)[C@H]1O)C2 (stereo partly shown) [Example 11],32,13,27,90,95,99,0,0,11,22,67,,,,
